In brackets after ≈: the same amount, converted by molar mass.
How the values were obtained:
[1] = Cytotoxicity against mouse EAC cells; type: functional, cell-based; conditions: Ehrlich
Rattus norvegicus = test: Decrease in blood pressure in rat at 45 uM/kg; type: organism-based
[2] = Negative inotropic activity in guinea pig atria muscle at 36 uM; type: functional, Cavia porcellus, Muscle tissue
Oryctolagus cuniculus = organism: Oryctolagus cuniculus; test: Blocked of calcium channel in rabbit smooth muscle; type: tissue-based; conditions: Muscle tissue
Heart = test: Toxicity in isolated guinea pig heart assessed as bradycardia at 45 uM/kg; type: tissue-based, Cavia porcellus; conditions: ex_vivo

Row | Structure (SMILES) | IC50 [1] | Activity (Rattus norvegicus) | Activity [2] | pD2 (Oryctolagus cuniculus) | Activity (Heart)
1 | CC1=C2CC[C@@]3(C)C/C=C(/C)CC(=O)C[C@@H](C)C[C@@H](OC1=O)[C@H]23 [CLAVULACTONE] | 8 µg/mL (≈ 25.3 µM) |  |  |  | 
2 | CC1=C2CC[C@@]3(C)CC[C@H](C)CC(=O)C[C@@H](C)C[C@@H](OC1=O)[C@H]23 [CLAVIROLIDE C] | 27 µg/mL (≈ 84.8 µM) | 24 mmHg | 50% | 5.48 | 43.7%
3 | CC1=C2CC[C@@]3(C)C/C=C(\C)CC(=O)C[C@@H](C)C[C@@H](OC1=O)[C@H]23 [CLAVIROLIDE B] | 21 µg/mL (≈ 66.4 µM) |  |  | 4.68 | 
4 | CC1=C2CC[C@@]3(C)CC/C(C)=C\C(=O)C[C@@H](C)C[C@@H](OC1=O)[C@H]23 [CLAVIROLIDE D] | 11.7 µg/mL (≈ 37 µM) |  |  | 4.79 | 

— ChEMBL document CHEMBL1158945, “Four Novel Diterpenoids: Clavirolides B, C, D, and E from the Chinese Soft Coral Clavularia viridis” (J Nat Prod, 1991)
